Reference: US9402827B2, “Treatment of gout” (ARDEA BIOSCIENCES, INC., priority 2010, dated 2016)
“And” between values parts separate entries of the source, which are not always exact repeats. Equal values may be shown once.

Experiments:
[1] = tested on: gout flares; test: Phase II clinical trial, gout dose response study: incidence of gout flares (Example 4); assay type: in vivo, human
Experimental: Purpose: To compare the proportion of subjects whose serum urate (sUA) level is <6.0 mg/dL after 28 days of dosing by treatment group. Official Title: Randomized, Double-Blind, Multicenter, Placebo-Controlled, Safety and Efficacy Study of Lesinurad Versus Placebo in the Treatment of Hyperuricemia in Patients With Gout Experimental dosage form: 200 mg capsule of Lesinurad, with appropriate pharmaceutically acceptable excipients Design: • Control: Placebo Control • Endpoint Classification: Safety/Efficacy Study • Intervention Model: Parallel Assignment • Masking: Double Blind (Subject, Caregiver, Investigator, Outcomes Assessor) • Primary Purpose: Treatment Primary Outcome Measures: Compare the proportion of subjects whose serum urate (sUA) level is <6.0 mg/dL after 28 days of dosing by treatment group. […] [table] Inclusion Criteria: • Male or post-menopausal or surgically sterile female. • Hyperuricemic (i.e., screening sUA≧8 mg/dL). • Meets criteria for the diagnosis of gout as per the American Rheumatism Association (ARA) Criteria for the Classification of Acute Arthritis of Primary Gout (see Appendix B). • Willing and able to give informed consent and adhere to visit/protocol schedules (informed consent must be given before the first study procedure is performed).

[2] = tested on: gout flares; test: as above; assay type: in vivo, human; remark: listed apart in the source
[3] = tested on: monosodium urate (MSU) crystal injection-induced inflammation; test: In vivo MSU-induced inflammation, rat air pouch study (Example 3B); parameters: species or system Sprague-Dawley rats; details: for Extravasation (optical absorbance at 620 nm), Av / Extravasation (optical absorbance at 620 nm), individual rats 1-10 / Exudate volume, Av / Exudate volume, individual rats 1-10 / Total white blood cell count, Av / Total white blood cell count, individual rats 1-10: 4 h after MSU
Experimental: (Air Pouch studies) were unpacked, placed in cages, a health inspection performed and a number assigned. […] Under anesthesia, 30 mL sterile air was injected subcutaneously on day 0 and day 3. Vehicle (water) or Lesinurad were administered orally. On the day of the experiment, rats were dosed with Vehicle, Lesinurad p.o., and/or colchicine s.c. (Sigma, Cat.#C9754, Lot.#188K1131). […] The pouch was gently massaged and the exudate was immediately removed from the air pouch. The exudate volume was measured and recorded for each animal. […] The supernatants were stored at −20° C. for cytokine analysis. […] Plasma extravasation was measured by optical absorbance at 620 nm for each exudate sample.

[4] = tested on: TNF-α; test: In vitro THP-1 (human cell) assay, TNF-α; assay type: cell-based; details: differentiated THP-1 cells, 6 hours, FIG. 3A
Experimental: (§1) Uric acid (2 g, Sigma, Cat #U0881, Log S89329-419) was heated in a flask at 200° C. for 2 hours. Endotoxin free water (396 mL) followed by aqueous sodium hydroxide solution (2.375 mL of 5N or 1.19 mL 10N) were added and heated on a stir plate until the uric acid dissolved. […] The solution was stirred at room temperature for 24 hours and then centrifuged at 1000 g for 10 min. The supernatant was discarded and resuspended in PBS and centrifuged at 1000 g for 10 min; this step was repeated twice. The washed crystals were heated at 60° C. until dry and then autoclaved at 200° C. for 2 hours. The crystals were then weighed and resuspended in PBS at a concentration of 26 mg/ml.
(§2) THP-1 cells were differentiated with 0.5 μM of phorbol myristate acetate (PMA) incubated for 3 hours. Cells were then spun down and washed once with HBSS. 1.25×10^6/mL cells were plated in white clear bottom white 96 well plate in 100 μL volume and incubated overnight. The next day the media was aspirated from the wells. 100 μL of 1× Optimem along with the compounds were added.

[5] = tested on: IL-1β; test: Effect on IL-1β release after stimulation with ATP or MSU crystals (Example 1, FIG. 1); assay type: cell-based; details: within 1 hour of stimulation with ATP (5 mM) or 1 μg MSU crystals
Experimental: FIG. 1 illustrates the effect of Lesinurad on IL-1β release within 1 hour of stimulation with ATP (5 mM) or 1 μg MSU (monosodium urate) crystals (compd1=Lesinurad; C-1inh=caspase-1 inhibitor).
Activation of the inflammasome results in the release of preformed IL-1, which goes on to activate other targets as well as increase the production of IL-1 itself.

[6] = tested on: IL-1β; test: In vitro THP-1 (human cell) assay, IL-1β; assay type: cell-based; details: differentiated THP-1 cells, 6 hours, FIG. 3B
Experimental: as §1, §2

For `O=C(O)CSc1nnc(Br)n1-c1ccc(C2CC2)c2ccccc12` [Lesinurad, 2-(5-bromo-4-(4-cyclopropylnaphthalen-1-yl)-4H-1,2,4-triazol-3-ylthio)acetic acid], the “Mean Duration of Flares (by dose at time of flare)” value ([1]; 200 mg at time of flare) was 4 days, the “% of patients with Flares by Dose at Time of Flare” value (from here on “% of patients with Flares by Dose”) ([1]; 200 mg at time of flare (6/96)) was 6% (6/96) and the “Mean Duration of Flares (by dose at time of flare)” value ([1]; 400 mg at time of flare) was 2 days. For the same molecule, the “% of patients with Flares by Dose” value ([1]; 600 mg at time of flare (3/32)) was 9% (3/32), the “Mean Duration of Flares” value ([1]; Randomized dose group 200 mg) was 4 days and the “% Patients with Flares” value ([1]; Randomized dose group 200 mg, N 31) was 6%. The “Mean Duration of Flares” value ([1]; Randomized dose group 400 mg) was 3.8 days, the “% Patients with Flares” value ([1]; Randomized dose group 600 mg, N 32) was 13% and the “% of patients with Flares by Dose” value ([2]; 400 mg at time of flare (1/65)) was 2% (1/65). For the same molecule, the “Mean Duration of Flares (by dose at time of flare)” value ([2]; 600 mg at time of flare) was 1.7 days, the “% Patients with Flares” value ([2]; Randomized dose group 400 mg, N 33) was 12% and the “Mean Duration of Flares” value ([2]; Randomized dose group 600 mg) was 1.5 days. The “Duration of flares, in words” value ([2]; across dose groups 200-600 mg) was “shorter at higher doses”, the “Flares in the first week out of total flares on drug” value ([2]; first week, patients receiving 200 mg QD) was 6/10 and the “Extravasation (optical absorbance at 620 nm), Av” value ([3]; Lesinurad 0.1 mg/kg p.o.) was 1.87. For the same molecule, the “Extravasation (optical absorbance at 620 nm), individual rats 1-10” value (“Extravasation … individual rats 1-10” below) ([3]; Lesinurad 0.1 mg/kg p.o.) was 1.84 and 1.83 and 1.89 and 2.19 and 1.54 and 2.14 and 1.94 and 1.61 and 1.90 and 1.88, the “Exudate volume, Av” value ([3]; Lesinurad 0.1 mg/kg p.o.) was 9.18 mL and the “Exudate volume, individual rats 1-10” value ([3]; Lesinurad 0.1 mg/kg p.o.) was 8 mL (3×) and 9 mL and 11 mL and 10 mL and 9.6 mL and 9.2 mL and 7 mL and 12 mL. For the same molecule, the “Total white blood cell count, Av” value ([3]; Lesinurad 0.1 mg/kg p.o.) was 0.92 ×10^8, the “Total white blood cell count, individual rats 1-10” value ([3]; Lesinurad 0.1 mg/kg p.o.) was 0.14 ×10^8 (2×) and 0.07 ×10^8 and 2.28 ×10^8 and 2.75 ×10^8 and 0.48 ×10^8 and 0.92 ×10^8 and 0.03 ×10^8 and 2.00 ×10^8 and 0.39 ×10^8 and the “Extravasation (optical absorbance at 620 nm), Av” value ([3]; Lesinurad 1 mg/kg p.o.) was 1.87. For the same molecule, the “Extravasation … individual rats 1-10” value ([3]; Lesinurad 1 mg/kg p.o.) was 1.79 (2×) and 2.01 and 2.27 and 1.36 and 1.94 and 1.67 and 1.98 and 2.04 and 1.83, the “Exudate volume, Av” value ([3]; Lesinurad 1 mg/kg p.o.) was 9.68 mL and the “Exudate volume, individual rats 1-10” value ([3]; Lesinurad 1 mg/kg p.o.) was 9.6 mL and 7 mL (2×) and 13 mL and 5 mL and 10 mL and 12 mL and 14 mL and 7.8 mL and 11.4 mL. The “Total white blood cell count, Av” value ([3]; Lesinurad 1 mg/kg p.o.) was 0.41 ×10^8, the “Total white blood cell count, individual rats 1-10” value ([3]; Lesinurad 1 mg/kg p.o.) was 0.19 ×10^8 and 0.44 ×10^8 and 0.68 ×10^8 and 0.01 ×10^8 and 0.48 ×10^8 and 0.54 ×10^8 and 0.26 ×10^8 and 1.17 ×10^8 and 0.34 ×10^8 and 0.02 ×10^8 and the “Extravasation, in words” value ([3]; Lesinurad 10 mg/kg) was “reduced extravasation”. The “Extravasation (optical absorbance at 620 nm), Av” value ([3]; Lesinurad 10 mg/kg p.o.) was 1.03, the “Extravasation … individual rats 1-10” value ([3]; Lesinurad 10 mg/kg p.o.) was 1.20 and 0.93 and 0.89 and 0.77 and 0.71 and 0.97 and 0.82 (2×) and 1.94 and 1.25 and the “Exudate volume, Av” value ([3]; Lesinurad 10 mg/kg p.o.) was 8.29 mL. For the same molecule, the “Exudate volume, individual rats 1-10” value ([3]; Lesinurad 10 mg/kg p.o.) was 7 mL and 10 mL and 6 mL (2×) and 8 mL and 9 mL (2×) and 12 mL and 8.4 mL and 7.5 mL, the “Total white blood cell count, Av” value ([3]; Lesinurad 10 mg/kg p.o.) was 0.57 ×10^8 and the “Total white blood cell count, individual rats 1-10” value ([3]; Lesinurad 10 mg/kg p.o.) was 0.60 ×10^8 and 0.15 ×10^8 and 0.08 ×10^8 and 0.16 ×10^8 and 0.55 ×10^8 and 1.01 ×10^8 and 1.02 ×10^8 and 0.95 ×10^8 and 0.29 ×10^8 and 0.90 ×10^8. For the same molecule, the “Exudate volume, in words” value ([3]; Lesinurad 10 mg/kg/day) was “significantly reduced exudate volume”, the “Number of white blood cells, in words” value ([3]; Lesinurad 0.1, 1 and 10 mg/kg/day) was “significantly lowered the number of white blood cells” and the “Exudate volume, in words” value ([3]; Lesinurad 0.1 and 1 mg/kg/day) was “did not significantly reduce exudate volume”. The “IL-4 levels in the exudates” value ([3]; cytokines measured in air pouch exudates) was “significantly reduced IL-4 levels”, the IC50 [4] was ~52 µM and the IL-1 release [5] was “blocks IL-1 release very early”. The IC50 [6] was ~30 µM.
